# Laboratory results reported in ChEMBL document CHEMBL1201861, “Genomics of Drug Sensitity in Cancer screening data, Wellcome Trust Sanger Institute”.
# How the values were obtained:
# Test in all cases: cells
# KP-4 = assay type: functional, cell-based, Homo sapiens; details: Homo sapiens, KP-4; read-out: IC50;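 note: human KP-4 cells, with growth inhibition read out through a cell viability assay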
# Description: SANGER: Inhibition of human KP-4 cell growth in a cell viability assay.
# LB373-MEL-D = assay type: functional, cell-based, Homo sapiens; details: Homo sapiens, LB373-MEL-D;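 note: growth inhibition of the cell line, read out in a cell viability assay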
# Description: SANGER: Inhibition of human LB373-MEL-D cell growth in a cell viability assay.
# HT-1080 = assay type: functional, cell-based, Homo sapiens; details: Homo sapiens, HT-1080
# Description: SANGER: Inhibition of human HT-1080 cell growth in a cell viability assay.
# K5 = assay type: functional, cell-based, Homo sapiens; details: Homo sapiens, K5
# Description: SANGER: Inhibition of human K5 cell growth in a cell viability assay.
# IST-MES1 = assay type: functional, cell-based, Homo sapiens; details: Homo sapiens, IST-MES1;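 note: growth inhibition of IST-MES1 cells, measured with a cell viability assay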
# Description: SANGER: Inhibition of human IST-MES1 cell growth in a cell viability assay.
# NCI-H1993 = assay type: functional, cell-based, Homo sapiens; details: Homo sapiens, NCI-H1993;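 note: growth inhibition of the cancer cell line, assessed with a cell viability assay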
# Description: SANGER: Inhibition of human NCI-H1993 cell growth in a cell viability assay.
# MFH-ino = assay type: functional, cell-based; details: Homo sapiens;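 note: growth inhibition of human MFH-ino cells, read out by a cell viability assay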
# Description: SANGER: Inhibition of human MFH-ino cell growth in a cell viability assay.
# MMAC-SF = assay type: functional, cell-based, Homo sapiens; details: Homo sapiens, MMAC-SF;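 note: growth inhibition of human MMAC-SF cells, read out with a cell viability assay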
# Description: SANGER: Inhibition of human MMAC-SF cell growth in a cell viability assay.
# EKVX = assay type: functional, cell-based, Homo sapiens; details: Homo sapiens, EKVX;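 note: growth inhibition of human EKVX cells, read out with a cell viability assay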
# Description: SANGER: Inhibition of human EKVX cell growth in a cell viability assay.
# HLE = assay type: functional, cell-based, Homo sapiens; details: Homo sapiens, HLE;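 note: growth inhibition of human HLE cells, read out by a cell viability assay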
# Description: SANGER: Inhibition of human HLE cell growth in a cell viability assay.
# OE33 = assay type: functional, cell-based, Homo sapiens; details: Homo sapiens, OE33;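 note: growth inhibition of human OE33 cells, measured by a cell viability assay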
# Description: SANGER: Inhibition of human OE33 cell growth in a cell viability assay.
# LB2241-RCC = assay type: functional, cell-based, Homo sapiens; details: Homo sapiens, LB2241-RCC;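 note: cell viability assay measuring how strongly the cultured human renal carcinoma line is prevented from growing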
# Description: SANGER: Inhibition of human LB2241-RCC cell growth in a cell viability assay.
# SNB-75 = assay type: functional, cell-based, Homo sapiens; details: Homo sapiens, SNB-75;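 note: cell viability assay measuring growth inhibition of human SNB-75 cells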
# Description: SANGER: Inhibition of human SNB75 cell growth in a cell viability assay.
# NUGC-3 = assay type: functional, cell-based, Homo sapiens; details: Homo sapiens, NUGC-3;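 note: growth inhibition of human NUGC-3 cells, read out with a cell viability assay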
# Description: SANGER: Inhibition of human NUGC-3 cell growth in a cell viability assay.
# SW1088 = assay type: functional, cell-based, Homo sapiens; details: Homo sapiens, SW1088;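 note: growth inhibition of human SW1088 cells, read out by a cell viability assay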
# Description: SANGER: Inhibition of human SW1088 cell growth in a cell viability assay.
# DBTRG-05MG = assay type: functional, cell-based, Homo sapiens; details: Homo sapiens, DBTRG-05MG;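 note: cell viability assay measuring growth inhibition of human DBTRG-05MG cells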
# Description: SANGER: Inhibition of human DBTRG-05MG cell growth in a cell viability assay.
# KM-H2 = assay type: functional, cell-based; details: Homo sapiens;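 note: growth inhibition of KM-H2 cells, read out by a cell viability assay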
# Description: SANGER: Inhibition of human KM-H2 cell growth in a cell viability assay.
# KG-1 = assay type: functional, cell-based; details: Homo sapiens;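 note: growth inhibition of KG-1 cells, read out by a cell viability assay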
# Description: SANGER: Inhibition of human KG-1 cell growth in a cell viability assay.
# MDA-MB-361 = assay type: functional, cell-based, Homo sapiens; details: Homo sapiens, MDA-MB-361
# KYSE-140 = assay type: functional, cell-based, Homo sapiens; details: Homo sapiens, KYSE-140;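 note: cell viability assay measuring growth inhibition in human KYSE-140 cells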
# Description: SANGER: Inhibition of human KYSE-140 cell growth in a cell viability assay.
# EGI-1 = assay type: functional, cell-based, Homo sapiens; details: Homo sapiens, EGI-1;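 note: cell viability readout used to gauge growth inhibition of EGI-1 cells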
# Description: SANGER: Inhibition of human EGI-1 cell growth in a cell viability assay.
# RCC10RGB = assay type: functional, cell-based, Homo sapiens; details: Homo sapiens, RCC10RGB;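 note: growth inhibition of human RCC10RGB cells, read out by a cell viability assay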
# Description: SANGER: Inhibition of human RCC10RGB cell growth in a cell viability assay.
# SW13 = assay type: functional, cell-based, Homo sapiens; details: Homo sapiens, SW13;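 note: IC50 is inhibition of SW13 cell growth, read out with a cell viability assay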
# Description: SANGER: Inhibition of human SW13 cell growth in a cell viability assay.
# SW48 = assay type: functional, cell-based, Homo sapiens; details: Homo sapiens, SW48;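 note: growth inhibition of SW48 cells, read out with a cell viability assay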
# Description: SANGER: Inhibition of human SW48 cell growth in a cell viability assay.
# Daoy = assay type: functional, cell-based, Homo sapiens; details: Homo sapiens, Daoy;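 note: daoy cell growth inhibition, read out as cell viability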
# Description: SANGER: Inhibition of human Daoy cell growth in a cell viability assay.
# IA-LM = assay type: functional, cell-based, Homo sapiens; details: Homo sapiens, IA-LM;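 note: cell viability assay measuring growth inhibition of human IA-LM cells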
# Description: SANGER: Inhibition of human IA-LM cell growth in a cell viability assay.
# DK-MG = assay type: functional, cell-based, Homo sapiens; details: Homo sapiens, DK-MG;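 note: growth inhibition of DK-MG cells, read out with a cell viability assay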
# Description: SANGER: Inhibition of human DK-MG cell growth in a cell viability assay.
# RD = assay type: functional, cell-based, Homo sapiens; details: Homo sapiens, RD
# Description: SANGER: Inhibition of human RD cell growth in a cell viability assay.
# ESS-1 = assay type: functional, cell-based, Homo sapiens; details: Homo sapiens, ESS-1;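 note: growth inhibition of human ESS-1 cells, read out by a cell viability assay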
# Description: SANGER: Inhibition of human ESS-1 cell growth in a cell viability assay.
# EFM-19 = assay type: functional, cell-based, Homo sapiens; details: Homo sapiens, EFM-19;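 note: growth inhibition of human EFM-19 cells, measured in a cell viability assay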
# Description: SANGER: Inhibition of human EFM-19 cell growth in a cell viability assay.
# NCI-H2405 = assay type: functional, cell-based, Homo sapiens; details: Homo sapiens, NCI-H2405;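 note: growth inhibition of the human cell line, read out with a cell viability assay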
# Description: SANGER: Inhibition of human NCI-H2405 cell growth in a cell viability assay.
# RERF-LC-MS = assay type: functional, cell-based, Homo sapiens; details: Homo sapiens, RERF-LC-MS;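 note: growth inhibition of human RERF-LC-MS cells, read out by a cell viability assay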
# Description: SANGER: Inhibition of human RERF-LC-MS cell growth in a cell viability assay.
# MEL-HO = assay type: functional, cell-based, Homo sapiens; details: Homo sapiens, MEL-HO
# Description: SANGER: Inhibition of human MEL-HO cell growth in a cell viability assay.
# RCM-1 = assay type: functional, cell-based, Homo sapiens; details: Homo sapiens, RCM-1;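 note: growth inhibition of the RCM-1 line, determined with a cell viability readout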
# Description: SANGER: Inhibition of human RCM-1 cell growth in a cell viability assay.
# MKN-45 = assay type: functional, cell-based, Homo sapiens; details: Homo sapiens, MKN-45;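 note: growth inhibition of human MKN-45 cells, measured with a cell viability assay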
# Description: SANGER: Inhibition of human MKN45 cell growth in a cell viability assay.
# C32 = assay type: functional, cell-based, Homo sapiens; details: Homo sapiens, C32;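 note: cell viability assay, with IC50 reflecting inhibition of C32 cell growth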
# Description: SANGER: Inhibition of human C32 cell growth in a cell viability assay.
# ATN-1 = assay type: functional, cell-based; details: Homo sapiens;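 note: growth inhibition of human ATN-1 cells, read out with a cell viability assay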
# Description: SANGER: Inhibition of human ATN-1 cell growth in a cell viability assay.
# JEG-3 = assay type: functional, cell-based, Homo sapiens; details: Homo sapiens, JEG-3;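 note: growth inhibition of human JEG-3 cells, read out with a cell viability assay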
# Description: SANGER: Inhibition of human JEG-3 cell growth in a cell viability assay.
# NCI-H446 = assay type: functional, cell-based; details: Homo sapiens;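 note: growth inhibition of NCI-H446 cells determined by a cell viability assay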
# Description: SANGER: Inhibition of human NCI-H446 cell growth in a cell viability assay.
# HGC-27 = assay type: functional, cell-based, Homo sapiens; details: Homo sapiens, HGC-27;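 note: growth inhibition of human HGC-27 cells, read out in a cell viability assay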
# Description: SANGER: Inhibition of human HGC-27 cell growth in a cell viability assay.
# Mo = assay type: functional, cell-based; details: Homo sapiens
# Description: SANGER: Inhibition of human Mo-T cell growth in a cell viability assay.
# DMS-114 = assay type: functional, cell-based, Homo sapiens; details: Homo sapiens, DMS-114
# HCC1937 = assay type: functional, cell-based, Homo sapiens; details: Homo sapiens, HCC1937;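 note: growth inhibition measured with a cell viability read-out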
# Description: SANGER: Inhibition of human HCC1937 cell growth in a cell viability assay.
# NKM-1 = assay type: functional, cell-based; details: Homo sapiens;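 note: growth inhibition of NKM-1 cells, read out with a cell viability assay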
# Description: SANGER: Inhibition of human NKM-1 cell growth in a cell viability assay.
# BFTC-909 = assay type: functional, cell-based, Homo sapiens; details: Homo sapiens, BFTC-909
# Description: SANGER: Inhibition of human BFTC-909 cell growth in a cell viability assay.
# LS-411N = assay type: functional, cell-based, Homo sapiens; details: Homo sapiens, LS-411N
# L-428 = assay type: functional, cell-based; details: Homo sapiens
# Description: SANGER: Inhibition of human L-428 cell growth in a cell viability assay.
# NCI-H1304 = assay type: functional, cell-based; details: Homo sapiens;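 note: growth inhibition of the cancer cell line, measured in a cell viability assay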
# Description: SANGER: Inhibition of human NCI-H1304 cell growth in a cell viability assay.
# CW-2 = assay type: functional, cell-based, Homo sapiens; details: Homo sapiens, CW-2;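 note: growth inhibition of CW-2 cells, read out by a cell viability assay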
# Description: SANGER: Inhibition of human CW-2 cell growth in a cell viability assay.
# D-392MG = assay type: functional, cell-based, Homo sapiens; details: Homo sapiens, D-392MG
smiles,measurement,setting,value
Nc1ccn([C@@H]2O[C@H](CO)[C@@H](O)[C@@H]2O)c(=O)n1 [CYTARABINE],IC50,KP-4,0.536 µM
same,IC50,LB373-MEL-D,> 2 µM
same,IC50,HT-1080,0.114 µM
same,IC50,K5,0.0432 µM
same,IC50,IST-MES1,> 2 µM
same,IC50,NCI-H1993,> 2 µM
same,IC50,MFH-ino,> 2 µM
same,IC50,MMAC-SF,> 2 µM
same,IC50,EKVX,> 2 µM
same,IC50,HLE,1.59 µM
same,IC50,OE33,1.8 µM
same,IC50,LB2241-RCC,0.0553 µM
same,IC50,SNB-75,> 2 µM
same,IC50,NUGC-3,0.589 µM
same,IC50,SW1088,> 2 µM
same,IC50,DBTRG-05MG,> 2 µM
same,IC50,KM-H2,> 2 µM
same,IC50,KG-1,1.16 µM
same,IC50,MDA-MB-361,> 2 µM
same,IC50,KYSE-140,> 2 µM
same,IC50,EGI-1,1.11 µM
same,IC50,RCC10RGB,> 2 µM
same,IC50,SW13,0.476 µM
same,IC50,SW48,0.366 µM
same,IC50,Daoy,0.532 µM
same,IC50,IA-LM,> 2 µM
same,IC50,DK-MG,> 2 µM
same,IC50,RD,1.27 µM
same,IC50,ESS-1,> 2 µM
same,IC50,EFM-19,> 2 µM
same,IC50,NCI-H2405,> 2 µM
same,IC50,RERF-LC-MS,1.76 µM
same,IC50,MEL-HO,> 2 µM
same,IC50,RCM-1,> 2 µM
same,IC50,MKN-45,1.65 µM
same,IC50,C32,> 2 µM
same,IC50,ATN-1,0.366 µM
same,IC50,JEG-3,0.431 µM
same,IC50,NCI-H446,> 2 µM
same,IC50,HGC-27,0.455 µM
same,IC50,Mo,> 2 µM
same,IC50,DMS-114,1.68 µM
same,IC50,HCC1937,> 2 µM
same,IC50,NKM-1,1.06 µM
same,IC50,BFTC-909,0.357 µM
same,IC50,LS-411N,0.695 µM
same,IC50,L-428,> 2 µM
same,IC50,NCI-H1304,> 2 µM
same,IC50,CW-2,0.613 µM
CN(Cc1cnc2nc(N)nc(N)c2n1)c1ccc(C(=O)N[C@@H](CCC(=O)O)C(=O)O)cc1 [METHOTREXATE],IC50,KP-4,> 0.2 µM
same,IC50,HT-1080,> 0.2 µM
same,IC50,K5,0.0598 µM
same,IC50,IST-MES1,> 0.2 µM
same,IC50,NCI-H1993,> 0.2 µM
same,IC50,MMAC-SF,> 0.2 µM
same,IC50,EKVX,> 0.2 µM
same,IC50,HLE,> 0.2 µM
same,IC50,OE33,> 0.2 µM
same,IC50,LB2241-RCC,> 0.2 µM
same,IC50,SNB-75,> 0.2 µM
same,IC50,NUGC-3,> 0.2 µM
same,IC50,SW1088,> 0.2 µM
same,IC50,DBTRG-05MG,0.171 µM
same,IC50,KM-H2,> 0.2 µM
same,IC50,KG-1,> 0.2 µM
same,IC50,MDA-MB-361,> 0.2 µM
same,IC50,KYSE-140,> 0.2 µM
same,IC50,D-392MG,0.158 µM
same,IC50,EGI-1,> 0.2 µM
same,IC50,RCC10RGB,> 0.2 µM
same,IC50,SW13,> 0.2 µM
same,IC50,SW48,> 0.2 µM
same,IC50,Daoy,> 0.2 µM
same,IC50,IA-LM,> 0.2 µM
same,IC50,DK-MG,> 0.2 µM
same,IC50,RD,> 0.2 µM
same,IC50,ESS-1,> 0.2 µM
same,IC50,EFM-19,> 0.2 µM
same,IC50,NCI-H2405,> 0.2 µM
same,IC50,RERF-LC-MS,> 0.2 µM
same,IC50,MEL-HO,> 0.2 µM
same,IC50,RCM-1,> 0.2 µM
same,IC50,MKN-45,> 0.2 µM
same,IC50,C32,> 0.2 µM
same,IC50,ATN-1,0.00392 µM
same,IC50,JEG-3,> 0.2 µM
same,IC50,NCI-H446,> 0.2 µM
same,IC50,HGC-27,> 0.2 µM
same,IC50,Mo,> 0.2 µM
same,IC50,DMS-114,> 0.2 µM
same,IC50,HCC1937,> 0.2 µM
same,IC50,NKM-1,0.0077 µM
same,IC50,BFTC-909,> 0.2 µM
same,IC50,LS-411N,0.118 µM
same,IC50,L-428,> 0.2 µM
same,IC50,NCI-H1304,> 0.2 µM
same,IC50,CW-2,> 0.2 µM
O=C(c1cc(Cc2n[nH]c(=O)c3ccccc23)ccc1F)N1CCN(C(=O)C2CC2)CC1 [OLAPARIB],IC50,KP-4,> 5 µM
same,IC50,HT-1080,> 5 µM
same,IC50,K5,> 5 µM
same,IC50,IST-MES1,> 5 µM
same,IC50,NCI-H1993,> 5 µM
same,IC50,MMAC-SF,> 5 µM
same,IC50,EKVX,> 5 µM
same,IC50,HLE,> 5 µM
same,IC50,OE33,> 5 µM
same,IC50,LB2241-RCC,> 5 µM
same,IC50,SNB-75,> 5 µM
same,IC50,NUGC-3,> 5 µM
same,IC50,SW1088,> 5 µM
same,IC50,DBTRG-05MG,> 5 µM
same,IC50,KM-H2,> 5 µM
same,IC50,KG-1,> 5 µM
same,IC50,MDA-MB-361,> 5 µM
same,IC50,KYSE-140,> 5 µM
same,IC50,D-392MG,> 5 µM
same,IC50,EGI-1,> 5 µM
same,IC50,RCC10RGB,> 5 µM
same,IC50,SW13,> 5 µM
same,IC50,SW48,> 5 µM
same,IC50,Daoy,> 5 µM
same,IC50,IA-LM,> 5 µM
same,IC50,DK-MG,> 5 µM
same,IC50,RD,> 5 µM
same,IC50,ESS-1,> 5 µM
same,IC50,EFM-19,> 5 µM
same,IC50,NCI-H2405,> 5 µM
same,IC50,RERF-LC-MS,> 5 µM
same,IC50,MEL-HO,> 5 µM
same,IC50,RCM-1,> 5 µM
same,IC50,MKN-45,> 5 µM
same,IC50,C32,> 5 µM
same,IC50,ATN-1,> 5 µM
same,IC50,JEG-3,> 5 µM
same,IC50,NCI-H446,> 5 µM
same,IC50,HGC-27,> 5 µM
same,IC50,Mo,> 5 µM
same,IC50,DMS-114,> 5 µM
same,IC50,HCC1937,> 5 µM
same,IC50,NKM-1,1.25 µM
same,IC50,BFTC-909,> 5 µM
same,IC50,LS-411N,> 5 µM
same,IC50,L-428,> 5 µM
same,IC50,NCI-H1304,> 5 µM
same,IC50,CW-2,> 5 µM
